The record followed here is patent publication US20170184604A1, “DD1ALPHA RECEPTOR AND USES THEREOF IN IMMUNE DISORDERS” (THE GENERAL HOSPITAL CORPORATION, priority 2014, published 2017).

One experiment deals with naïve CD4+CD62L+ T cells. The experiment is described as follows: iTreg cell development assay. The format is cell-based, mouse. The settings on record: for frequency of Foxp3+CD4+ T cells (iTreg): anti-CD3 and anti-CD28. The procedure: Enriched human CD4+ T cells and CD8+ T cells were stained with CFSE (1 μM) and stimulated with plate-bound anti-CD3 antibody (3 μg/ml) together with 2, 5, or 10 μg/ml of DD1α-Ig proteins or control Ig proteins. The proliferations of CD4+ T or CD8+ T cells were determined by the percentages of CFSE-labeled CD4+ T or CD8+ T cells at the 72-hour culture. The levels of cytokines IFN-γ and TNF-α in culture supernatant were analyzed by ELISA at the 48-hour culture. […] The proliferation and cytokine production of CD4+ T cells were determined as FIG. 5A. […] The proliferations of CD4+ T cells were determined by percentage of CFSE-diluted CD4+ cells on day 3. The levels of cytokines IFN-γ and IL-2 in culture supernatant were analyzed by ELISA on day 2. […] Data are shown as mean±SD and representative of three experiments.
The cell culture plates were coated with anti-CD3 (145-2C11, eBioscience) together with mDD1α-Ig, mPD-L1-Ig or control Ig proteins. CD4+CD62L+naïve T cells were purified from splenocytes freshly isolated from Wt mice using CD4+CD62L+ T Cell Isolation Kit II (Miltenyi Biotec) and cultured in complete RPMI-1640 media added by anti-CD28 (37.51, eBioscience) and TGF-β (BioLegend) on the anti-CD3 & Ig proteins-coated plates. On day 3, cells were stained with anti-CD4-APC (RM4-5, eBioscience) and anti-mouse Foxp3-PE (FJK-16s, eBioscience) and analyzed for Foxp3 expression on CD4+ T cells by flow cytometry.

In the next experiment the test system is DD1α. The experiment is described as follows: Homophilic interaction assay (Ig protein-coated beads on transfected 293T cells). In kind it is binding, human. The procedure: (FIG. 3A) Defective apoptotic cell engulfment of DD1α−/− m-BMDMs. Engulfments of Wt and DD1α−/− apoptotic thymocytes by Wt and DD1α−/− BMDMs were assessed by flow cytometry as described previously. The pHrodo-labeled apoptotic thymocytes were incubated with m-BMDMs for 30 min and the phagocytosis was determined by measuring the positive pHrodo-containing macrophages. Graph represents mean±SD from three independent experiments. (FIG. 3B) Homophilic DD1α interaction. […] The binding was examined under an inverted microscope (left panels) and also determined from the optical density (O.D.) at 492 nm (shown at the right). […] Binding was determined by counting the bound cells per 100 μm^2 and normalized by cell number bound to untreated plate. […] The bead bound His-DD1α (33-194) proteins were eluted and detected by immunoblotting using anti-His antibody. […] DD1α-transfected cells were treated or untreated with 1 mM bis(maleinido)hexane (BMH) for 1 hour, and DD1α protein was analyzed by western blotting under non-reducing condition. […] The phagocytosis of MCF7/DD1α KD cells expressing empty vector (EV), DD1α or DD1α-ΔIgV was determined as in FIG. 2A. […]

Experiment [1] concerns Jurkat cells expressing DD1α receptor. The experiment is described as follows: Ig fusion protein binding to Jurkat cells. The settings on record: several concentrations; anti-Ig-APC detection. On the procedure: Jurkat cells overexpressing DD1alpha (transfected with DD1alpha cDNA) or control Jurkat cells were assayed for binding to Ig-fused DD1α or PD-1 proteins. Cells were incubated with several different concentrations of DD1α-Ig (left panels) or PD1-Ig (right panels), and the bound Ig fusion proteins were detected by anti-Ig-APC. Binding amounts were determined by percentage of APC positive cells.

Turning to “DD1α-Ig: the extracellular region of DD1α fused with the immunoglobulin G Fc segment”, the iTreg cell generation result with naïve CD4+CD62L+ T cells (alone without TGF-β) is “did not affect”. In addition, the “frequency of Foxp3+CD4+ T cells (iTreg)” value in the experiment with naïve CD4+CD62L+ T cells (1 ng/ml TGF-β, control Ig 14.2%) is listed as 31.4%; in the experiment on naïve CD4+CD62L+ T cells (2 ng/ml TGF, control Ig 32.6%), 51.7%. For the same substance, the iTreg cell development entry with naïve CD4+CD62L+ T cells (in the presence of TGF-β) is listed as “significantly enhanced”. Further, the “binding to IgV domain-deleted mutant DD1α on the cell surface” value in the experiment with DD1α (293 cells transfected with mutant-DD1α (IgV domain-deletion)) is recorded as “abolished this interaction”. Besides, the “binding to complete DD1α proteins expressed on the cell surface” value in the experiment on DD1α (293 cells transfected with wt-DD1α) is listed as “bound”. The “binding to Jurkat cells expressing DD1α receptor” value in experiment [1] is on record as “bind”.
